{
  "source": "paper PMC6321136",
  "about": "“Combined In Vitro Studies and in Silico Target Fishing for the Evaluation of the Biological Activities of Diphylleia cymosa and Podophyllum hexandrum” (Molecules, 2018)",
  "key": {"[1]": {"tested_on": "Cell Cycle Modulation (counterscreen)", "parameters": "method as in PubChem Bioassay AID 1117350", "settings": "ref PubChem Bioassay AID 1117350; cited from earlier work"}, "[2]": {"tested_on": "Agonist, peroxisome proliferator-activated receptor delta (PPARd)", "parameters": "method as in PubChem Bioassay AID 743227", "settings": "ref PubChem Bioassay AID 743227; cited from earlier work"}, "[3]": {"tested_on": "Agonist, Histone H2A.x", "parameters": "method as in PubChem Bioassay AID 1224896", "settings": "ref PubChem Bioassay AID 1224896; cited from earlier work"}, "[4]": {"tested_on": "Cytotoxicity, Agonist, nuclear factor kappa B subunit 1", "parameters": "method as in PubChem Bioassay AID 1159515", "settings": "ref PubChem Bioassay AID 1159515; cited from earlier work"}, "[5]": {"tested_on": "Antagonist, androgen receptor (AR)", "parameters": "method as in PubChem Bioassay AID 743042", "settings": "ref PubChem Bioassay AID 743042; cited from earlier work"}, "[6]": {"tested_on": "Agonist, thyroid stimulating hormone receptor (TSHR)", "parameters": "method as in PubChem Bioassay AID 1224843", "settings": "ref PubChem Bioassay AID 1224843; cited from earlier work"}, "[7]": {"tested_on": "AP1 Signaling Pathway", "parameters": "method as in PubChem Bioassay AID 357", "settings": "ref PubChem Bioassay AID 357; cited from earlier work"}, "[8]": {"tested_on": "Anti-Inflammatory model (counterscreen)", "parameters": "method as in PubChem Bioassay AID 1318", "settings": "ref PubChem Bioassay AID 1318; cited from earlier work"}, "[9]": {"tested_on": "Agonist, thyroid receptor (TR)", "parameters": "method as in PubChem Bioassay AID 743066", "settings": "ref PubChem Bioassay AID 743066; cited from earlier work"}, "[10]": {"tested_on": "Antagonist, androgen receptor (AR)", "parameters": "method as in PubChem Bioassay AID 743063", "settings": "ref PubChem Bioassay AID 743063; cited from earlier work"}, "[11]": {"tested_on": "Agonist, AP-1", "parameters": "method as in PubChem Bioassay AID 1159528", "settings": "ref PubChem Bioassay AID 1159528; cited from earlier work"}, "[12]": {"tested_on": "Cytotoxicity, Activate, aryl hydrocarbon receptor (AhR)", "parameters": "method as in PubChem Bioassay AID 743086", "settings": "ref PubChem Bioassay AID 743086; cited from earlier work"}, "[13]": {"tested_on": "Cell Cycle Modulation (counterscreen)", "parameters": "method as in PubChem Bioassay AID 1117349", "settings": "ref PubChem Bioassay AID 1117349; cited from earlier work"}, "[14]": {"tested_on": "Chlamydomonas reinhardtii Algae Gravitaxis", "parameters": "method as in PubChem Bioassay AID 463189", "settings": "ref PubChem Bioassay AID 463189; cited from earlier work"}, "[15]": {"tested_on": "Antagonist, retinoid-related orphan receptor gamma (ROR-gamma)", "parameters": "method as in PubChem Bioassay AID 1159523", "settings": "ref PubChem Bioassay AID 1159523; cited from earlier work"}, "[16]": {"tested_on": "Antagonist, NFkB Signaling Pathway", "parameters": "method as in PubChem Bioassay AID 624479", "settings": "ref PubChem Bioassay AID 624479; cited from earlier work"}, "[17]": {"assay": "β-Carotene/linoleic acid co-oxidation assay", "description": "The evaluation of the antioxidant activity using the β-carotene/linoleic acid co-oxidation system was performed according to Duarte-Almeida et al., with adaptations. The extracts were solubilized in MeOH (2.2 mg/mL) and further diluted to concentrations ranging from 3.125 to 200 μg/mL. An aliquot of 25 μL of sample solutions were added in the 96-well microplate. 25 mg of linoleic acid and 100 mg Tween 20 (Sigma, St. Louis, MO, USA) were added to a round-bottom flask containing 1 mL of a β-carotene solution (1 mg/mL, Sigma, St. Louis, MO, USA) in chloroform. The latter was removed in a rotatory evaporator and, then, 50 mL of aerated water was added to the flask, affording the β-carotene emulsion. Portions of 250 μL of the freshly prepared emulsion were added to the wells corresponding to the odd columns of a microplate. […] Readings were performed immediately at 470 nm. After the first reading, the microplate was incubated at 45 °C and the kinetic cycle was performed with readings at 15 min intervals for a total of 120 min. The antioxidant activity was expressed as % of inhibition of lipid peroxidation (%I), using the formula (I% = Ac (initial abs − Final abs) − Aam (final abs − Initial abs)/Ac × 100). Assays were performed in triplicate and IC50 values were determined by non-linear regression using GraphPad Prism, version 6.0 (GraphPad Software, San Diego, CA, USA)."}, "[18]": {"tested_on": "Anti-Inflammatory model", "parameters": "method as in PubChem Bioassay AID 489035", "settings": "ref PubChem Bioassay AID 489035; cited from earlier work"}, "[19]": {"tested_on": "Salmonella choleraesuis subs. choleraesuis sorotype Typhi BM/Panama-TY2", "assay": "Antibacterial microdilution assay", "format": "cell-based"}, "[20]": {"tested_on": "Agonist, p53", "parameters": "method as in PubChem Bioassay AID 720552", "settings": "ref PubChem Bioassay AID 720552; cited from earlier work"}, "[21]": {"tested_on": "Anticancer, colon", "parameters": "method as in PubChem Bioassay AID 1834", "settings": "ref PubChem Bioassay AID 1834; cited from earlier work"}},
  "note": "Like-named read-outs stand apart in the source and are kept apart here.",
  "data": [
    {"smiles": "COc1cc([C@@H]2c3cc4c(cc3[C@H](O)[C@H]3COC(=O)[C@H]23)OCO4)cc(OC)c1OC", "note": "[Podophyllotoxin, podophyllotoxin]", "values": [
      {"measurement": "Exper. Activity", "setting": "[1]", "result": "Active"},
      {"measurement": "Exper. Activity", "setting": "[2]", "result": "Inactive"},
      {"measurement": "Exper. Activity", "setting": "[3]", "result": "Inactive"},
      {"measurement": "Exper. Activity", "setting": "[4]", "result": "Inactive"},
      {"measurement": "Exper. Activity", "setting": "[5]", "result": "Inactive"},
      {"measurement": "Exper. Activity", "setting": "[6]", "result": "Inactive"},
      {"measurement": "Exper. Activity", "setting": "[7]", "result": "Inactive"},
      {"measurement": "Exper. Activity", "setting": "[8]", "result": "Inactive"},
      {"measurement": "Exper. Activity", "setting": "[9]", "result": "Inactive"},
      {"measurement": "Exper. Activity", "setting": "[10]", "result": "Active"},
      {"measurement": "Exper. Activity", "setting": "[11]", "result": "Active"},
      {"measurement": "Exper. Activity", "setting": "[12]", "result": "Inactive"},
      {"measurement": "Exper. Activity", "setting": "[13]", "result": "Active"},
      {"measurement": "Exper. Activity", "setting": "[14]", "result": "Inactive"},
      {"measurement": "Exper. Activity", "setting": "[15]", "result": "Active"},
      {"measurement": "Exper. Activity", "setting": "[16]", "result": "Inactive"},
      {"measurement": "Antioxidant Activity (IC50-µg/mL) β-Carotene/linoleic Acid", "setting": "[17]", "result": ">200", "unit": "µg/mL"},
      {"measurement": "Exper. Activity", "setting": "[18]", "result": "Inactive"},
      {"measurement": "Salmonella Typhi Mean ± SD (percentage of inhibition of microbial growth)", "setting": "[19]; 250 µg/mL", "result": "No antibacterial activity"},
      {"measurement": "inhibition at 250 µg/mL", "setting": "[19]; Salmonella enterica, read-out: Salmonella Typhi Mean ± SD (percentage of inhibition of microbial growth)", "result": "31.6 ± 7.54", "unit": "%"},
      {"measurement": "Exper. Activity", "setting": "[20]", "result": "Inactive"},
      {"measurement": "Exper. Activity", "setting": "[21]", "result": "Active"}
    ]}
  ]
}
